# Source: patent US8080517B2, “Cell-permeable peptide inhibitors of the JNK signal transduction pathway” (Xigen SA, priority 2005, dated 2011)
# Entries after “also recorded” stand apart in the source; their conditions may differ. Where a SMILES comes first, the peptide text is derived from it. [ ]: non-standard residue; d: D form.
# Tests used:
# [1] = test system: βTC-3 cell cultures; format: cell-based
# Experimental: The ability of the L- and D-enantiomeric forms of TAT and inventive TAT-IB1(s) peptides (“TAT-IB peptides”) to enter cells was evaluated. L-TAT, D-TAT, inventive L-TAT-IB1(s), and inventive D-TAT-IB1(s) peptides [SEQ ID NOs: 5, 6, 9 and 12, respectively] were labeled by N-terminal addition of a glycine residue conjugated to fluorescein. Labeled peptides (1 μM) were added to βTC-3 cell cultures, which were maintained as described in Example 3. At predetermined times cells were washed with PBS and fixed for five minutes in ice-cold methanol-acetone (1:1) before being examined under a fluorescence microscope. Fluorescein-labeled BSA (1 μM, 12 moles/mole BSA) was used as a control.
# Little to no signal was present at 48 hours.
# Fluorescent signals from these all-D retro-inverso peptides were still very strong 1 week later, and the signal was only slightly diminished at 2 weeks post treatment.
# [2] = test system: βTC-3 cells; assay: IL-1β induced pancreatic β-cell death, peptide treatment, propidium iodide / Hoechst 33342 staining; format: cell-based; details: one single addition 1 μM, IL-1β 10 ng/ml every two days, 15 days
# Experimental: We investigated the effects of the inventive L-TAT-IB(s) peptides on the promotion of β-cell apoptosis elicited by IL-1. βTC-3 cell cultures were incubated for 30 minutes with 1 μM of inventive L-TAT-IB1(s) peptides followed by 10 ng/mL of IL-1. A second addition of peptide (1 μM) was performed 24 hours later. Apoptotic cells were counted after two days of incubation with IL-1 β using propidium iodide (red stained cell are dead cells) and Hoechst 33342 (blue stained cell are cells with intact plasma membrane) nuclear staining.
# Long term inhibition of IL-1 induced cells death was examined by treating βTC-3 cells as described above, except that incubation of the cells with the peptides and IL-1 β was sustained for 12 days. Additional peptides (1 μM) were added each day and additional IL-1 β (10 ng/mL) was added every 2 days. […] Taken together, these experiments provide evidence that inventive TAT-IB(s) peptides are biologically active molecules able to prevent the effects of JNK signaling on cell fate.
# Inhibition of IL-1 β induced pancreatic β-cell death by the inventive D-TAT-IB1(s) peptide was analyzed. βTC-3 cells were incubated as described above for 30 minutes with one single addition of the indicated peptides (1, μM), then IL-1 (10 ng/ml) was added.
# Apoptotic cells were then counted after two days of incubation with IL-1 β by use of Propidium Iodide and Hoechst 33342 nuclear staining. A minimum of 1,000 cells were counted for each experiment. Standard Error of the Means (SEM) are indicated, n=5.
# Long term inhibition of IL-1P induced cell-death by the D-TAT-IB1 peptide was also analyzed. βTC-3 cells were incubated as above for 30 minutes with one single addition of the indicated peptides (1 μM), then IL-1 β (10 ng/ml) was added, followed by addition of the cytokine every two days. Apoptotic cells were then counted after 15 days of incubation with IL-1 by use of propidium iodide and Hoechst 33342 nuclear staining. […] A minimum of 1.000 cells were counted for each experiment.
# [3] = test system: WiDr cells; assay: Irradiation (30 Gy) induced apoptosis; format: cell-based, human; details: 1 μM added 30 minutes before 30 Gy, analyzed 48 hours later
# Experimental: JNK is also activated by ionizing radiation. To determine whether inventive TAT-IB(s) peptides would provide protection against radiation-induced JNK damage, “WiDr” cells were irradiated (30 Gy) in presence or absence of D-TAT, inventive L-TAT-IB1(s) or inventive D-TAT-IB1(s) peptides (1 μM added 30 minutes before irradiation). Control cells (CTRL) were not irradiated. Cells were analyzed 48 hours later by means of PI and Hoechst 3342 staining, as described above. N=3, SEM are indicated.
# [4] = Focal cerebral ischaemia, transient MCAO model, infarct volume; format: in vivo, male ICR-CD1 mice; details: i.v. administration, FIG. 4
# Source text: Evaluation of neuroprotection by inventive chimeric peptides after iv administration against focal cerebral ischaemia, in a transient MCAO model (see FIG. 4).
# Transient ischemia in adult mice. Using male ICR-CD1 mice (6 weeks old; 18-37 g; Harlan), we provoked ischemia by introducing a filament from the common carotid artery into the internal carotid and advancing it into the arterial circle, thereby occluding the middle cerebral artery. We measured regional cerebral blood flow by laser Doppler flowmetry, with a probe fixed on the skull throughout the ischemia until 10 min after reperfusion. Rectal temperature was measured and maintained at 37° C. The mice were killed 48 h after reperfusion. Serial cryostat sections 20 μm thick were traced using a computer-microscope system equipped with the Neurolucida program (MicroBrightField) and the volumes of the ischemic area and of the whole brain were calculated (blinded) with the Neuroexplorer program. XG−102 0.3=0.3 mg/kg,XG−102 1=1 mg/kg, XG−102 5=5 mg/kg
# The infarct volume sizes (mm^3) after bolus iv administration of placebo and XG-102 0.3, […] 6 hours after reperfusion (30 minutes clamp) in an adult mice model were as follows.
# [5] = test system: cortical neuronal culture; assay: LDH release from cortical neuronal cultures following NMDA stimulation; format: cell-based, rat; details: 5 μM pre-treatment 30 min, 100 μM NMDA, 12 h
# Experimental: The neuroprotective effect of the D-TAT-IB (generic)(s)/D-JNKI1 peptide (SEQ ID NO: 12) was evaluated in sister cultures pre-treated for 30 min with the indicated concentrations of peptides or MK-801 before continuous exposure to 100 μM NMDA.
# Cortical neuronal culture. We dissected small pieces of cortex from the brains of two day old rat pups, incubated them with 200 units of papain for 30 min at 34° C., and then plated the neurons at densities of approximately 1×10^6 cells/plate on dishes pre-coated with 100 μg/ml poly-D-lysine. The plating medium consisted of B27/Neurobasal (Life Technologies, Gaithersburg, Md.) supplemented with 0.5 mM glutamine, 100 U/ml penicillin and 100 ug/ml streptomycin.
# Lactate dehydrogenate (LDH) cytotoxicity assay. LDH released into the bathing medium 12, 24 and 48 h after NMDA administration was measured using the Cytotox 96 non-radioactive cytotoxicity assay kit (Promega, Wis.) (see FIG. 5).
# [6] = Noise trauma, hearing threshold shifts by auditory brainstem response; format: in vivo, guinea pigs
# Experimental: D-TAT-IB1(s) was applied onto the round window membrane of the cochlea of 3 groups of guinea pigs (each group with 6 animals) in 2 microliters of a gel formulation of 2.6% buffered hyaluronic acid (Hylumed, Genzyme Corp.) at a concentration of 100 µM either 30 minutes before noise trauma (120 dB at 6 kHz during 30 minutes) or 30 minutes or 4 hours thereafter. Untreated ears served as control. Hearing threshold shifts were evaluated by auditory brainstem response measurements 20 minutes after noise trauma (temporary threshold shift, TTS) and 15 days following the trauma (permanent threshold shift, PTS). […] Thus, D-TAT-IB1 (s) is a very effective otoprotective compound in case of noise trauma.
smiles,measurement,setting,value
CC(C)C[C@@H](NC(=O)[C@@H](Cc1ccccc1)NC(=O)[C@H]1CCCN1C(=O)[C@@H](CCC(N)=O)NC(=O)[C@H](NC(=O)[C@H]1CCCN1C(=O)[C@@H](CCCNC(=N)N)NC(=O)[C@@H](CO)NC(=O)[C@@H](CCC(N)=O)NC(=O)[C@H](N)CC(=O)O)C(C)C)C(=O)N[C@H](CC(N)=O)C(=O)N[C@H](CC(C)C)C(=O)N[C@@H](C(=O)N[C@@H](C(=O)N1CCC[C@@H]1C(=O)N[C@H](CCCNC(=N)N)C(=O)N[C@H](CCCCN)C(=O)N1CCC[C@@H]1C(=O)N[C@H](CCCNC(=N)N)C(=O)N1CCC[C@@H]1C(=O)N1CCC[C@@H]1C(=O)N[C@H](CCCNC(=N)N)C(=O)N[C@H](CCCNC(=N)N)C(=O)N[C@H](CCCNC(=N)N)C(=O)N[C@H](CCC(N)=O)C(=O)N[C@H](CCCNC(=N)N)C(=O)N[C@H](CCCNC(=N)N)C(=O)N[C@H](CCCCN)C(=O)N[C@H](CCCCN)C(=O)N[C@H](CCCNC(=N)N)C(=O)NCC(=O)O)[C@H](C)O)[C@H](C)O [D-TAT-IB1(s)] (H-[dD][dQ][dS][dR][dP][dV][dQ][dP][dF][dL][dN][dL][dT][dT][dP][dR][dK][dP][dR][dP][dP][dR][dR][dR][dQ][dR][dR][dK][dK][dR]G-OH),stability inside the cells,[1],extremely stable inside the cells
same,long term inhibition of IL-1β induced cell-death,[2],able to confer long term (15 day) protection
same,prevention of irradiation induced apoptosis,[3],able to prevent irradiation induced apoptosis
same,neuroprotection (infarct volumes),[4],provides efficient neuroprotection
same,degenerative changes due to NMDA exposure (LDH release above controls),[5],completely inhibited
same,"morphological appearance, number and distribution of the neurons",[5],indistinguishable from the controls
same,"protection against permanent hearing loss (PTS, 15 days)","[6]; 100 μM in hyaluronic acid gel on round window membrane 30 minutes before noise trauma (120 dB at 6 kHz, 30 minutes)",protects substantially against permanent hearing loss from noise trauma if applied preventively before the noise exposure
same,"permanent threshold shift (PTS, 15 days) versus untreated control ears",[6]; 100 μM in hyaluronic acid gel on round window membrane 30 minutes or 4 hours after noise trauma,significantly lower; also recorded: protected against permanent hearing loss even if applied after exposure to excessive noise
same,dependence of the protective effect on time of administration after noise trauma,[6]; 30 minutes versus 4 hours after trauma,in a time-dependent fashion if administered after trauma; also recorded: stronger the earlier
